# According to patent publication US20230053688A1, “METHODS TO ALTER LATENCY IN EBV+ MALIGNANCIES” (Cornell University, priority 2020, published 2023):
# Structures can show the parent of a compound that is named as a salt. Where two headings read alike, the source gives them in different places.
# Test system: LMP1 expression in Kem I cells
# Test: microbe, parasite or virus in culture
# Assay type: cell-based, EBV
# Conditions: for fold induction at 2.5 µM / fold induction at 1 µM: human gammaherpesvirus 4, 48 h
# [1] = Kem I cells, 2.5 uM, 48 hours, average of replicates 1 and 2
# [2] = Kem I cells, 2.5 uM, 48 hours, fold change in LMP1 transcript vs vehicle
# [3] = read-out: Average LMP1 Fold Increase, Kem I cells, 2.5 uM, 48 hours, average of replicates 1 and 2
# [4] = read-out: Replicate 1-LMP1 Fold Increase, Kem I cells, 2.5 uM, 48 hours, fold change in LMP1 transcript vs vehicle
# [5] = read-out: Replicate 2-LMP1 Fold Increase, Kem I cells, 2.5 uM, 48 hours, fold change in LMP1 transcript vs vehicle
# [6] = read-out: Average LMP1 Fold Increase, Kem I cells, dose 2.5 uM, 48 hours, LMP1 transcript by in-well qRT-PCR, average of the two replicates
# [7] = read-out: Replicate 1-LMP1 Fold Increase, Kem I cells, dose 2.5 uM, 48 hours, LMP1 transcript by in-well qRT-PCR, screen replicate 1
# [8] = read-out: Replicate 2-LMP1 Fold Increase, Kem I cells, dose 2.5 uM, 48 hours, LMP1 transcript by in-well qRT-PCR, screen replicate 2
# [9] = Kem I cells, 1 uM, 48 hours, fold change in LMP1 transcript vs vehicle
# [10] = Kem I cells, dose 2.5 uM, 48 hours, LMP1 transcript by in-well qRT-PCR, average of the two replicates
# [11] = Kem I cells, dose 2.5 uM, 48 hours, LMP1 transcript by in-well qRT-PCR, screen replicate 1
# [12] = Kem I cells, dose 2.5 uM, 48 hours, LMP1 transcript by in-well qRT-PCR, screen replicate 2
compound,measurement,setting,value
O=S(=O)(c1ccccc1)c1cnc2c(N3CCNCC3)cccc2c1 [SB742457],Average LMP1 Fold Increase,[1],0.82
same,Replicate 1-LMP1 Fold Increase,[2],1.09
same,Replicate 2-LMP1 Fold Increase,[2],0.55
OC(CNCC(O)C1CCc2cc(F)ccc2O1)C1CCc2cc(F)ccc2O1 (stereo not drawn) [Nebivolol],fold induction at 2.5 µM,[3],1.16
same,fold induction at 2.5 µM,[4],0.83
same,fold induction at 2.5 µM,[5],1.49
O=C(O)/C=C/c1ccc(Cn2ccnc2)cc1 [Ozagrel HCl],Average LMP1 Fold Increase,[1],0.79
same,Replicate 1-LMP1 Fold Increase,[2],0.85
same,Replicate 2-LMP1 Fold Increase,[2],0.72
C[C@@H](O[C@H]1OCCN(Cc2n[nH]c(=O)[nH]2)[C@H]1c1ccc(F)cc1)c1cc(C(F)(F)F)cc(C(F)(F)F)c1 [Aprepitant],fold induction at 2.5 µM,[3],0.99
same,fold induction at 2.5 µM,[4],1.58
same,fold induction at 2.5 µM,[5],0.41
CCCSc1nc(N[C@@H]2C[C@H]2c2ccc(F)c(F)c2)c2nnn([C@@H]3C[C@H](OCCO)[C@@H](O)[C@H]3O)c2n1 [Ticagrelor],fold induction at 2.5 µM,[6],0.66
same,fold induction at 2.5 µM,[7],0.61
same,fold induction at 2.5 µM,[8],0.7
Cc1ccc(NCCCc2ccccc2)c(N)c1 [JSH-23],Average LMP1 Fold Increase,[1],0.77
same,Replicate 1-LMP1 Fold Increase,[2],0.86
same,Replicate 2-LMP1 Fold Increase,[2],0.69
C/C(=N\NC(=S)N1CCC1)c1ccccn1 [NSC 319726],Average LMP1 Fold Increase,[1],19.87
same,Replicate 1-LMP1 Fold Increase,[2],7.26
same,Replicate 2-LMP1 Fold Increase,[2],32.48
O=c1cc(N2CCOCC2)oc2c1ccc1ccccc12 [NU7026],Average LMP1 Fold Increase,[1],0.77
same,Replicate 1-LMP1 Fold Increase,[2],0.47
same,Replicate 2-LMP1 Fold Increase,[2],1.07
CCc1cc(Nc2nccc(-c3c(-c4ccc(OC)c(C(=O)Nc5c(F)cccc5F)c4)nc4ccccn34)n2)c(OC)cc1N1CCC(N2CCN(S(C)(=O)=O)CC2)CC1 [GSK1904529A],Average LMP1 Fold Increase,[1],0.20
same,Replicate 1-LMP1 Fold Increase,[2],0.18
same,Replicate 2-LMP1 Fold Increase,[2],0.23
Cc1cc2c(cc1CC(=O)c1sccc1S(=O)(=O)Nc1onc(C)c1Cl)OCO2 [Sitaxentan sodium],fold induction at 2.5 µM,[3],0.25
same,fold induction at 2.5 µM,[4],0.16
same,fold induction at 2.5 µM,[5],0.34
Cc1cccc(-c2[nH]ncc2-c2ccc3ncccc3n2)n1 [RepSox],Average LMP1 Fold Increase,,0.64
same,Replicate 1-LMP1 Fold Increase,,0.96
same,Replicate 2-LMP1 Fold Increase,,0.33
S=C=Nc1cccc(NC(=S)NCCCCNC(=S)Nc2cccc(N=C=S)c2)c1 [MRS 2578],Average LMP1 Fold Increase,[1],0.47
same,Replicate 1-LMP1 Fold Increase,[2],0.64
same,Replicate 2-LMP1 Fold Increase,[2],0.31
CN(C)C(=O)Nc1cccc(-c2ccc(N(C)C)cc2)c1 [Atglistatin],Average LMP1 Fold Increase,[1],0.99
same,Replicate 1-LMP1 Fold Increase,[2],0.75
same,Replicate 2-LMP1 Fold Increase,[2],1.23
CC(C)C[C@H](NC(=O)[C@H](Cc1ccccc1)NC(=O)c1cnccn1)B(O)O [Bortezomib (PS-341)],Average LMP1 Fold Increase,[1],77.22
same,Replicate 1-LMP1 Fold Increase,[2],150.06
same,Replicate 2-LMP1 Fold Increase,[2],4.38
O=[N+]([O-])C=Cc1ccc2c(c1)OCO2,Average LMP1 Fold Increase,[1],1.11
same,Replicate 1-LMP1 Fold Increase,[2],0.54
same,Replicate 2-LMP1 Fold Increase,[2],1.68
FC(F)(F)c1ccc(/C=C/c2nc(COc3ccc(CCCCn4ccnn4)cc3)co2)cc1 [Mubritinib (TAK 165)],Average LMP1 Fold Increase,,0.68
same,Replicate 1-LMP1 Fold Increase,,0.74
same,Replicate 2-LMP1 Fold Increase,,0.62
O=C(NOCC1CC1)c1ccc(F)c(F)c1Nc1ccc(I)cc1Cl [PD184352 (CI-1040)],Average LMP1 Fold Increase,[1],0.66
same,Replicate 1-LMP1 Fold Increase,[2],0.65
same,Replicate 2-LMP1 Fold Increase,[2],0.66
Cc1ccccc1C(C(=O)NC1CCCCC1)N(C(=O)Cn1ccnc1C)c1cccc(F)c1 (stereo not drawn) [AGI-5198],fold induction at 2.5 µM,[3],0.82
same,fold induction at 2.5 µM,[4],0.71
same,fold induction at 2.5 µM,[5],0.93
Cc1nc(-c2cn3c(n2)-c2ccc(-c4cnn(C(C)(C)C(N)=O)c4)cc2OCC3)n(C(C)C)n1 [GDC-0032],Average LMP1 Fold Increase,"Kem I cells, 1 uM, 48 hours, average of replicates 1 and 2",1.23
same,Replicate 1-LMP1 Fold Increase,[9],1.86
same,Replicate 2-LMP1 Fold Increase,[9],0.59
C=CC(=O)N1CCC[C@@H](n2nc(-c3ccc(Oc4ccccc4)cc3)c3c(N)ncnc32)C1 [Ibrutinib (PCl-32765)],Average LMP1 Fold Increase,,0.15
same,Replicate 1-LMP1 Fold Increase,,0.09
same,Replicate 2-LMP1 Fold Increase,,0.22
O=C(/C=C/c1cccc(S(=O)(=O)Nc2ccccc2)c1)NO [Belinostat (PXD101)],Average LMP1 Fold Increase,[1],51.63
same,Replicate 1-LMP1 Fold Increase,[2],17.40
same,Replicate 2-LMP1 Fold Increase,[2],85.87
COc1ccc(C(=O)Nc2sc3c(c2C(N)=O)CCCC3)cc1OC [TCS 359],Average LMP1 Fold Increase,[10],0.40 fold
same,Replicate 1-LMP1 Fold Increase,[11],0.62 fold
same,Replicate 2-LMP1 Fold Increase,[12],0.19 fold
Cc1cn(-c2cc(NC(=O)c3ccc(C)c(Nc4nccc(-c5cccnc5)n4)c3)cc(C(F)(F)F)c2)cn1 [Nilotinib (AMN-107)],Average LMP1 Fold Increase,[1],0.27
same,Replicate 1-LMP1 Fold Increase,[2],0.20
same,Replicate 2-LMP1 Fold Increase,[2],0.33
CCc1c(C(=O)C(N)=O)c2c(OCC(=O)O)cccc2n1Cc1ccccc1 [Varespladib (LY315920)],Average LMP1 Fold Increase,[10],0.52 fold
same,Replicate 1-LMP1 Fold Increase,[11],0.35 fold
same,Replicate 2-LMP1 Fold Increase,[12],0.69 fold
COc1cc2/c(=N/c3ccc(Br)cc3F)nc[nH]c2cc1OCC1CCN(C)CC1 [Vandetanib (ZD6474)],Average LMP1 Fold Increase,[10],1.14 fold
same,Replicate 1-LMP1 Fold Increase,[11],0.81 fold
same,Replicate 2-LMP1 Fold Increase,[12],1.47 fold
CC(C)(C)c1cnc(CSc2cnc(NC(=O)C3CCNCC3)s2)o1 [SNS-032 (BMS-387032)],Average LMP1 Fold Increase,[1],23.97
same,Replicate 1-LMP1 Fold Increase,[2],23.56
same,Replicate 2-LMP1 Fold Increase,[2],24.39
CN1CCN(c2nc(C3=C(c4c[nH]c5ccccc45)C(=O)NC3=O)c3ccccc3n2)CC1 [Sotrastaurin],fold induction at 2.5 µM,[3],0.31
same,fold induction at 2.5 µM,[4],0.3
same,fold induction at 2.5 µM,[5],0.31
Cc1cc(Nc2cc(CN3CCOCC3)c3nc(C)c(Cc4ccc(Cl)cc4F)n3n2)n[nH]1 [LY2784544],Average LMP1 Fold Increase,[1],0.94
same,Replicate 1-LMP1 Fold Increase,[2],1.24
same,Replicate 2-LMP1 Fold Increase,[2],0.65
Cc1cccc(CC(=O)N2CCc3c2ccc(-c2cn(C)c4ncnc(N)c24)c3F)n1 [GSK2656157],Average LMP1 Fold Increase,[1],0.71
same,Replicate 1-LMP1 Fold Increase,[2],0.58
same,Replicate 2-LMP1 Fold Increase,[2],0.84
HA14-1,Average LMP1 Fold Increase,[1],0.73
same,Replicate 1-LMP1 Fold Increase,[2],0.62
same,Replicate 2-LMP1 Fold Increase,[2],0.83
c1ccc(NCc2ccc(CNc3ccccn3)cc2)nc1 [WZ811],Average LMP1 Fold Increase,[10],0.08 fold
same,Replicate 1-LMP1 Fold Increase,[11],0.08 fold
same,Replicate 2-LMP1 Fold Increase,[12],0.08 fold
CN(C)Cc1ccc(-c2nc3cccc4c3n2CCNC4=O)cc1 [AG-14361],Average LMP1 Fold Increase,[1],0.30
same,Replicate 1-LMP1 Fold Increase,[2],0.39
same,Replicate 2-LMP1 Fold Increase,[2],0.22
Nc1nc(Cl)nc2c1ncn2[C@H]1C[C@H](O)[C@@H](CO)O1 [Cladribine],fold induction at 1 µM,"read-out: Average LMP1 Fold Increase, Kem I cells, 1 uM, 48 hours, average of replicates 1 and 2",38.7
same,fold induction at 1 µM,"read-out: Replicate 1-LMP1 Fold Increase, Kem I cells, 1 uM, 48 hours, fold change in LMP1 transcript vs vehicle",71.4
same,fold induction at 1 µM,"read-out: Replicate 2-LMP1 Fold Increase, Kem I cells, 1 uM, 48 hours, fold change in LMP1 transcript vs vehicle",6.02
CCOc1ccccc1-n1c(C(C)N2CCN(C(=O)COc3ccc(Cl)cc3)CC2)nc2ccccc2c1=O (stereo not drawn) [Erastin],fold induction at 2.5 µM,[3],0.73
same,fold induction at 2.5 µM,[4],0.7
same,fold induction at 2.5 µM,[5],0.75
Cc1ccc(NC(=O)C2(c3ccc4c(c3)OC(F)(F)O4)CC2)nc1-c1cccc(C(=O)O)c1 [VX-809 (Lumacaftor)],Average LMP1 Fold Increase,[10],0.87 fold
same,Replicate 1-LMP1 Fold Increase,[11],0.55 fold
same,Replicate 2-LMP1 Fold Increase,[12],1.18 fold
Cc1c(Cc2ccc3ccccc3n2)c2cc(F)ccc2n1CC(=O)O [OC000459],fold induction at 2.5 µM,[3],0.56
same,fold induction at 2.5 µM,[4],0.64
same,fold induction at 2.5 µM,[5],0.48
NC(=O)c1cccc(-c2cccc(OC(=O)NC3CCCCC3)c2)c1 [URB597],fold induction at 2.5 µM,[6],0.54
same,fold induction at 2.5 µM,[7],0.52
same,fold induction at 2.5 µM,[8],0.55
"COc1cc2c(cc1Cc1cccc(Cl)c1F)c(=O)c(C(=O)O)cn2[C@H](CO)C(C)C [Elvitegravir (GS-9137, JTK-303)]",Average LMP1 Fold Increase,[1],1.23
same,Replicate 1-LMP1 Fold Increase,[2],1.25
same,Replicate 2-LMP1 Fold Increase,[2],1.20
COC(=O)C1=C(C#N)NC(C)=C(C(=O)OC(C)C)C1c1cccc([N+](=O)[O-])c1 (stereo not drawn) [Nilvadipine],fold induction at 2.5 µM,[3],0.72
same,fold induction at 2.5 µM,[4],0.96
same,fold induction at 2.5 µM,[5],0.47
O=C1CC(=O)c2c(Cl)c(Cl)c(Cl)c(Cl)c21 [TCID],Average LMP1 Fold Increase,[10],0.52 fold
same,Replicate 1-LMP1 Fold Increase,[11],0.66 fold
same,Replicate 2-LMP1 Fold Increase,[12],0.38 fold
CCOC(=O)c1ccc(NC2CCCCC2)c(N)c1 [Ferrostatin-1 (Fer-1)],Average LMP1 Fold Increase,[1],0.22
same,Replicate 1-LMP1 Fold Increase,[2],0.24
same,Replicate 2-LMP1 Fold Increase,[2],0.19
CCN(CC)C(=O)c1ccc(C2=CC3(CCNCC3)Oc3cccc(O)c32)cc1 [ADL5859 HCl],fold induction at 2.5 µM,[3],1.02
same,fold induction at 2.5 µM,[4],0.54
same,fold induction at 2.5 µM,[5],1.5
